Test results from a melting point compilation (Tetko et al.; mined from patent text by program, amines drawn as free bases though some values may be those of a salt).

First: CCCn1cc(C(=O)NCc2ccc(Cl)cc2)c(=O)c2cc(CN3CCOCC3)sc21
Second: O=c1[nH]c2ccc(Cl)cc2c(=O)n1N1CCOCC1
The melting point of the first is lower: 174 to 176 °C for the first, 335 °C for the second.

Compared with `c1ccc2c(c1)NCCc1nccn1-2`, `CN1Cc2c(Cl)ncn2-c2ccccc2C1=O` is higher in melting point: 119 to 122 °C for the first, 193 to 194 °C for the second.

First: COc1ccc(C(Cc2ccccc2)C2=C(C)N=NC2=O)cc1OC1CCCC1 (stereo not drawn)
Second: COc1cc(OCC(=O)N[C@@H]2CCN(Cc3ccccc3)C2)ccc1C=O
The melting point of the first is lower: 88 to 90 °C for the first, 98 to 101 °C for the second.

First: O=C1N(Cc2cccc(-c3noc(C(F)(F)F)n3)c2)c2ccccc2C12COc1cc3c(cc12)CCO3 (stereo not drawn)
Second: CCCOc1nc2cccc(C(=O)O)c2n1Cc1ccc(-c2ccccc2-c2nc(=O)o[nH]2)cc1
The melting point of the first is higher: 182 to 188 °C for the first, 170 to 172 °C for the second.

First: COC(=O)c1sc(-c2ccccc2)c(O)c1O
Second: COC(=O)c1ccc(OCCOc2ccccc2)cc1
The melting point of the first is higher: 143 to 144 °C for the first, 92 to 93 °C for the second.

First: CCOC(=O)c1ccc(/C=C(/COCc2ccc(OC)cc2)Cn2ccnc2)c(Cl)c1
Second: CC(=O)Nc1ccc(OC(=O)COCc2ccccc2)cc1
The melting point of the first is lower: 41 to 42 °C for the first, 106 to 109 °C for the second.

Compared with `CC12C=CC(=O)C=C1CCC1C2C(O)CC2(C)C(C(=O)CO)=CCC12` (stereo not drawn), `CCCOC(=O)N1CCN(C(=O)c2cc(S(=O)(=O)N(C)C)ccc2N)CC1` is lower in melting point: 213 to 215 °C for the first, 174 to 176 °C for the second.

Compared with `COC(=O)Nc1cc2c(cn1)[nH]c1ccccc12`, `O=[N+]([O-])c1cccc(-c2cnc3[nH]c4ccccc4c3c2)c1` is higher in melting point: 180 to 182 °C for the first, greater than 220 °C for the second.

Compared with `Cc1nc(-c2ccc(Cl)cc2)n[nH]1`, `CS(=O)(=O)c1nc2c([nH]1)N(Cc1ccc(Cl)cc1)C1NCCN1C2=O` (stereo not drawn) is higher in melting point: 173 to 175 °C for the first, 282 to 284 °C for the second.

First: CON(C)CCNc1ncnc2nc[nH]c12
Second: CCCCCCCN(CCCCCSc1nc2ncccc2[nH]1)C(=O)NC(C)C
The melting point of the first is higher: 168 to 170 °C for the first, 101 to 102 °C for the second.

Compared with `Cc1ncc(I)nc1C`, `CCCC1N=Cc2cc(Cl)nc(=O)n21` (stereo not drawn) is higher in melting point: 51 to 54 °C for the first, 194 to 196 °C for the second.

First: CC(C)c1cccc(C(C)C)c1NC(=O)Cc1c(-c2ccccc2)c2cc(Cl)ccc2n(C)c1=O
Second: Cc1c(C(=O)NC2CCN(Cc3ccccc3)CC2)c2cc(F)ccc2n1C
The melting point of the first is higher: 237 to 238 °C for the first, 169 to 172 °C for the second.

First: CCOc1ccc2c(c1)CCC(Oc1ncnc3ccccc13)C2 (stereo not drawn)
Second: CCOc1ccc(C2(C(=O)O)CCC2)cc1
The melting point of the first is higher: 115 to 117 °C for the first, 90 to 91 °C for the second.

Compared with `Cc1cnc(C2CCCCC2)n2c1c(CCBr)c1ccccc12`, `CCCc1nc(S)nc(O)c1Cc1ccc(-c2ccccc2C#N)cc1` is higher in melting point: 137 to 139 °C for the first, 191 °C for the second.

Compared with `O=C(OC(C(F)(F)F)C(F)(F)F)c1c2ccccc2nc2ccccc12`, `N#CC(C(=O)Nc1cccc(C(F)(F)F)c1)C(=O)c1ccc[nH]1` (stereo not drawn) is higher in melting point: 143 to 145 °C for the first, 210 to 212 °C for the second.

First: COc1cc2ncc(C#N)c(Nc3ccc(F)c(Cl)c3)c2cc1NC(=O)C=CCN1CCC(O)C1 (stereo not drawn)
Second: N#Cc1ccc(NC(=O)n2ccc3cc(Oc4cc(CC(N)=O)ncn4)ccc32)cc1C(F)(F)F
The melting point of the first is higher: 215 to 220 °C for the first, 204 to 209 °C for the second.

Compared with `C=CCOc1ccccc1NC=C1C(=O)N(c2ccc(C(=O)O)cc2)N=C1C`, `CCOc1cc(N(Cc2cccnc2)c2ccc(C(=O)O)cc2)ccc1OC(F)F` is lower in melting point: 240 °C for the first, 178 to 179 °C for the second.

Compared with `COc1ccc(C(=O)Nc2ccccc2NC(=O)c2ccc(OC)c(OC)c2)cc1OC`, `CCOC(=O)CCCOc1ccc(C(C)=O)cc1OC` is lower in melting point: 191 to 192 °C for the first, 53 to 55 °C for the second.

Compared with `C#CCOc1cc(F)cc(F)c1-n1c(=O)cc(C(F)(F)F)n(C)c1=O`, `CCn1c(C)nc2cc(C(F)(F)F)c(Cl)c([N+](=O)[O-])c21` is lower in melting point: 159 to 162 °C for the first, 114 to 116 °C for the second.

First: O=[N+]([O-])c1ccc(Sc2ccc(OCC3CO3)cc2)cc1 (stereo not drawn)
Second: CCCCCCOc1ccc(CC(C)C(=O)Oc2ccc(-c3ccc(F)cc3)cc2)cc1 (stereo not drawn)
The melting point of the first is higher: 96 to 99 °C for the first, 78.4 to 79.5 °C for the second.

First: Oc1ccc(C2(c3ccc(O)cc3)CCC(c3ccccc3)CC2)cc1
Second: COc1ccccc1N1CCN(Cc2ccccc2C(c2ccc(O)cc2)c2ccc(O)cc2)CC1
The melting point of the first is higher: 262 to 263 °C for the first, 175 to 178 °C for the second.

Compared with `COC(=O)c1cc(N)c(Oc2cc(C)cc(C)c2)c(S(N)(=O)=O)c1`, `COc1ccc(S(N)(=O)=O)cc1CC(C)=O` is lower in melting point: 195 to 196 °C for the first, 138 to 139 °C for the second.

Compared with `NC(N)=Nc1nc(-c2cccc(CO)n2)cs1`, `Oc1cccc2csnc12` is lower in melting point: 229 °C for the first, 99 to 100 °C for the second.

First: CC(=O)OCC1OC(OC2C(COC(C)=O)OC(O)(Br)C(OC(C)=O)C2OC(C)=O)C(OC(C)=O)C(OC(C)=O)C1OC(C)=O (stereo not drawn)
Second: N[C@@H](CC(C(=O)O)=C1CCCC1)C(=O)O
The melting point of the first is lower: 97 to 99 °C for the first, 205 °C for the second.

First: CCCc1c(OCCCCCCC(=O)NCCCCc2cccnc2)ccc(C(C)=O)c1O
Second: CCCCCCCCc1ccc(OCC(=O)Cn2cccn2)cc1
The melting point of the first is lower: 57 to 59 °C for the first, 85 to 87 °C for the second.

First: O=C1CC[C@@H]([N+](=O)[O-])[C@H](c2ccccc2)N1 (relative stereo)
Second: CC(C)(CNc1ccc(C(=O)CCC(=O)O)cc1)[N+](=O)[O-]
The melting point of the first is lower: 174 to 175 °C for the first, 198 to 200 °C for the second.

Compared with `O=C1C=CC=C2CN=CC=C12`, `CNC(=O)c1ccc(F)c(Cl)c1` is lower in melting point: 232 to 234 °C for the first, 108 to 110 °C for the second.

First: CN1C(C(=O)Nc2ccccn2)=C(OC(=O)C=Cc2ccccc2)c2ccccc2S1(=O)=O
Second: CC(=O)OC1=C(c2nnc(C)o2)N(C)S(=O)(=O)c2ccccc21
The melting point of the first is lower: 156 to 158 °C for the first, 188 to 190 °C for the second.

Compared with `CCOc1cc2c(cc1OC)C(c1ccc(C(=O)N(C(C)C)C(C)C)cc1)=NC1CC[N+](C)([O-])CC21` (stereo not drawn), `O=C(O)c1ccc(C(c2cc(F)ccc2F)S(=O)(=O)c2ccc(Cl)cc2)nc1` (stereo not drawn) is higher in melting point: 195 to 198 °C for the first, greater than 230 °C for the second.

Compared with `N#CSCC(Cl)=C(Cl)CSC#N`, `COC(=O)C1(CC(N)=O)C(=O)N(C)C(=O)c2ccc(Cl)cc21` (stereo not drawn) is higher in melting point: 166 to 169 °C for the first, 220 to 222 °C for the second.

Going from `COc1ccc(-c2cnc3c(-c4cc(-c5ccccc5)cs4)cnn3c2O)cc1Br` to `COc1ccc(C2(O)c3ccccc3C(=O)N2CCc2cccc(OC)c2)cc1` (stereo not drawn), the melting point falls from greater than 300 °C to 119 °C.

First: NC(=O)CN1CCN(c2ccc(NC(=O)c3ccccc3-c3ccc(C(F)(F)F)cc3)cc2)CC1
Second: CCC(=O)Nc1ccc(-c2ccnc3c(C(=O)c4ccco4)cnn23)cc1
The melting point of the first is lower: 226 to 228 °C for the first, 235 to 237 °C for the second.

First: CC(C)Sc1c(C(N)=O)sc2cccc(Cl)c12
Second: CN(c1c(Cl)ccc2cc(C(=O)O)[nH]c12)S(=O)(=O)c1cccs1
The melting point of the first is lower: 182 to 184 °C for the first, 286 to 288 °C for the second.

Compared with `Cc1nn(-c2ccc(Cl)c3c2CC(C)O3)c(=O)n1C(F)F` (stereo not drawn), `C=CCn1c(=O)c(C(=O)OCC)c(N)c2cccnc21` is higher in melting point: 78 to 79 °C for the first, 161 to 164 °C for the second.

Compared with `CC(C)[C@H](NC(=O)N(C)Cc1nc2ccccc2[nH]1)C(=O)N[C@@H](Cc1ccccc1)[C@@H](O)C[C@H](Cc1ccccc1)NC(=O)OCc1cccnc1`, `O=C(Nc1ccccn1)[C@H](Cc1ccccc1)C[C@@H](Cc1ccccc1)C(=O)N[C@@H](CSCc1ccccc1)C(=O)O` is lower in melting point: 110 to 114 °C for the first, 75 to 80 °C for the second.

Compared with `Cc1[nH]c(=O)[nH]c1C(=O)C1CC1`, `S=c1cc(N2CCCC2)ss1` is lower in melting point: 272 to 273 °C for the first, 230 °C for the second.

Compound `CCCCCCCCCC(CC)SCCCCCCCCCCN1C(=O)CCC1=O` (stereo not drawn) has a melting point of 86 °C.
